US20080015251A1, “Means and method for treating lipotoxicity and other metabolically related phenomena” (Yissum Research Development Co., of The Hebrew University …, priority 2006, published 2008)
“Also recorded” adds a separate entry of the source. Marks after values point to notes of the source that are not given here.

Key:
[1] = tested on: J774.2 macrophages; assay: Cell viability by propidium iodide exclusion (membrane integrity), flow cytometry; format: cell-based, Murine; settings: for protection against TG-induced lipotoxicity (rate of cell death): AA 0.5 mM, resv 0.2 mM, querc 0.2 mM, lyc 10 AM, carot 10 AM, toc 0.2 mM, LA 0.25 mM, Se 1 AM (FIG. 8A)
Procedure: Murine J774.2 macrophages were cultured in RPMI medium enriched with 10% fetal calf serum, 1% glutamine, and 1% penicillin-streptomycin. […] Prior to experimental procedures, macrophages were seeded on 6-well plates at a concentration of 50,000 cells/ml.
The physiological range of TG in plasma is up to 1.5 mg/ml. […] Other agents, such as antioxidants or cycloheximide (CH), were added as specified in the relevant figure legends.
Cell membrane integrity was detected as previously described. Briefly, cells were stained with 2 Ag/ml propidium iodide (PI) and measured by flow cytometry, (FACS Calibur, Becton Dickinson, Calif.) at the following fluorescence setting: excitation at 488 nm and emission at 575 nm. Data were collected from 10,000 cells.

[2] = tested on: rat isolated hepatocytes; assay: Nitrite in culture media (Griess reaction); format: cell-based; settings: for effect on LE inhibition of nitrite levels: 0.1% LE, NAC 3 mmol/L, ascorbate 3 mmol/L, resveratrol 600 μmol/L
Procedure: Rotenone, S nitroso-N-acetyl-penicillamine (SNAP), buthionine sulfoximine (BSO), anti oxidants, or TNF-α were added to the culture medium in specific experiments. At the end of the experiment, the medium was collected and the cells were harvested for further assays.
Nitrite in culture media was measured by the Griess reaction (21). The values obtained were compared with standards of sodium nitrite dissolved in the cell culture media.

[3] = tested on: J774.2 macrophages; assay: Intracellular ROS, H2DCF-DA fluorescent probe, FACS; format: cell-based, Murine; settings: for ROS production in TG-treated cells: 0.1% LE 24 h, rotenone 40 AM added 5 min before probe, FCCP 15 min (FIG. 2B)
Procedure: Murine J774.2 macrophages were cultured in RPMI medium enriched with 10% fetal calf serum, 1% glutamine, and 1% penicillin-streptomycin. Cells were maintained in an incubator with temperature (378C) and CO2 (5%) control. Prior to experimental procedures, macrophages were seeded on 6-well plates at a concentration of 50,000 cells/ml.
LE was added to the cell culture at a concentration of 0.1% (w/v) TG (1 mg lipids/ml). The physiological range of TG in plasma is up to 1.5 mg/ml. The cells were incubated with the LE for 12, 24, or 48 h, and then washed twice with phosphate-buffered saline (PBS), and intracellular ROS and cell viability were measured. Other agents, such as antioxidants or cycloheximide (CH), were added as specified in the relevant figure legends.
Intracellular ROS were detected using a H2DCF-DA fluorescent probe. The cells were incubated with 25 AMH2DCF-DA for 30 min at room temperature. The fluorescence was measured in a FACS, with excitation at 488 nm and emission at 530 nm. Data were collected from 10,000 cells.

[4] = tested on: caspase-3; assay: Caspase-3 (DEVDase) activity, Ac-DEVD-AMC substrate; format: cell-based, Murine; settings: pretreatment for 24 h with CH (FIG. 6)
Procedure: For analysis of caspase activity, cells were incubated for 2 h in ice-cold PBS containing 0.5% Triton X-100 and 5 mM dithiothreitol (DTT). The suspension of permeabilized cells was agitated slightly and centrifuged at 14,000 g. The clear supernatant was tested for caspase-3 activity as previously described, using the caspase-3 substrate Ac-DEVD-AMC (Calbiochem, Darmstadt, Germany). Incubation was conducted in 200 Al of reaction mixture containing approximatelyl mg sample protein, in the dark, at 308 C for 4 h (linear phase of the reaction). Caspase-3 activity was expressed as arbitrary fluorescence units (AU) per mg. protein.

[5] = tested on: rat isolated hepatocytes; assay: Reduced glutathione (GSH) by HPLC; format: cell-based
Procedure: GSH was measured using HPLC (15). […] Detection was made by an electrochemical detector. The results were adjusted to protein levels of the samples.

[6] = tested on: rat isolated hepatocytes; assay: Intracellular ROS, DCF fluorescence, flow cytometer; format: cell-based
Procedure: Isolated hepatocytes were seeded at 2 […]10^9 cells/L; after 4 h, the culture medium was replaced and cells were incubated for 48 h with 0.01-0.1% LE. Rotenone, S nitroso-N-acetyl-penicillamine (SNAP), buthionine sulfoximine (BSO), anti oxidants, or TNF-α were added to the culture medium in specific experiments. At the end of the experiment, the medium was collected and the cells were harvested for further assays.
Cell membrane integrity (15), TG accumulation (22), and intracellular ROS levels (23, 24) were detected by flow cytometer (FACScalibur BD). Hepatocytes were stained with 2 mg/L DNA-interchelating dye propidium iodide, which is excluded by viable cells; with 1 mg/L Nile red, which accumulates in intracellular lipid droplets; or with […] dichlorodihydrofluorescein diacetate (H2DCF-DA), a probe that has high reactivity to hydrogen peroxide, lipid hydroperoxide, and hydroxyl radicals and low reactivity to superoxide anions (23,24). Fluorescence settings were as follows: excitation at 488 nm and emission at 575 nm for propidium iodide and Nile red and 488 nm and recorded at 530 nm for H2DCF-DA. Data were collected from 10,000 cells.

[7] = tested on: iNOS; assay: iNOS mRNA level by RT-PCR; format: cell-based, rat; settings: 0.1% LE, NAC 3 mmol/L, 48 h
Procedure: (§1) Total RNA was prepared using TriReagent. Analyses of mRNA levels of iNOS, eNOS, and gylceraldehyde-3-phosphate dehydrogenase (GAPDH) were performed using RT-PCR. The synthesis of cDNA was carried out using a Reverse-it (ABgene) first-strand synthesis kit. The reaction was conducted at 40-55° C. for 50 min. Finally, the reaction was terminated by incubation at 70° C. for 15 min. PCR amplification was performed in the Biometra T personal cycler instrument (Biometra). Cycles were performed at 94° C. for 30 s followed by 57° C. for 30 s and 72° C. for 30 s. cDNA was incubating with ReddyMix and gene-specific PCR primers, designed using Primer 3 software (Whitehead Institute for Biomedical Research).
(§2) The primers were synthesized by MBC: eNOS, forward primer, 5′-[…]-3′, and reverse primer, 5′-[…]-3′; INOS, forward primer, 5′[…]-3′, and reverse primer, 5′-[…]-3′. As a loading control, RNA was hybridized with a probe of the housekeeping gene, GAPDH, forward primer, 5′-[…]-3′, and reverse primer, 5′-[…]-3′.
(§3) PCR products were electrophoresed on […] gel containing 5 µL ethidium bromide, and the gel image was quantified using Doc-it gel image analysis program (UVP). The number of cycles for all the genes was selected within the linear part of a standard curve.

[8] = tested on: eNOS; assay: eNOS mRNA level by RT-PCR; format: cell-based, rat; settings: 0.1% LE, NAC 3 mmol/L, 48 h
Procedure: as §1, §2, §3

[9] = tested on: iNOS; assay: iNOS protein expression, Western blot; format: cell-based, rat; settings: 0.1% LE, NAC 3 mmol/L, 48 h
Procedure: (§4) Cells were scraped and lysed in 750 μΛ of lysis buffer (20 mmol/L Tris, pH 7.8; 0.1% Nonidet P-40; 100 mmol/L NaCl; 50 mmol/L NaF; 10% glycerol, 1 mmol/L sodium orthovanadate). Lysates were centrifuged at 8500×g for 10 min. The supernatant was collected and used for the analysis of eNOS and iNOS.
(§5) Protein concentration was determined by the Bradford method (20) using bovine serum albumin as a standard. Samples were boiled for 5 min with SDS sample buffer; 60 μg of protein per sample was loaded onto a 10% SDS-polyacrylamide gel. Electroblots were blocked in Tris buffer NaCl-Tween (TBST) containing 5% skim milk powder at room temperature. Western blot analysis with a specific antibody against iNOS (Biomol), eNOS, p65, and p-c-Jun antibodies (Santa Cruz Biotechnology) was carried out. The antibodies were diluted in TBST buffer+5% skim milk and left overnight at 4° C. After a TBST washing procedure, the blots were incubated with horseradish-peroxidase labeled anti-rabbit antibody (Pierce) for 1 h at room temperature. The immune reaction was detected by enhanced chemiluminescence. Bands were quantified by scanning densitometry and expressed as arbitrary units.

[10] = tested on: eNOS; assay: eNOS protein expression, Western blot; format: cell-based, rat; settings: 0.1% LE, NAC 3 mmol/L, 48 h, data not shown
Procedure: as §4, §5

[11] = with or without 0.1% LE and BSO, 48 h (Table 6)
[12] = with or without 0.1% LE and rotenone, 48 h (Table 5)

CC(C)=CCC/C(C)=C/C=C/C(C)=C/C=C/C(C)=C/C=C/C=C(C)/C=C/C=C(C)/C=C/C=C(\C)CCC=C(C)C [lycopene]
protection against TG-induced lipotoxicity (rate of cell death) ([1]; 0.1% LE): did not have any protective effect or even enhanced the rate of cell death

TNF-α
Nitrite ([2]; TNF-α (100 mU) 3 h, with or without 48 h preincubation with 0.1% LE): 2.1 ± 0.1 μmol/106 cells | Nitrite ([2]; TNF-α (100 mU) 6 h, with or without 48 h preincubation with 0.1% LE): 2.1 ± 0.2 μmol/106 cells | Nitrite ([2]; TNF-α (100 mU) 9 h, with or without 48 h preincubation with 0.1% LE): 4.3 ± 0.2 μmol/106 cells | Nitrite ([2]; TNF-α (100 mU) 12 h, with or without 48 h preincubation with 0.1% LE): 6.5 ± 0.2 μmol/106 cells

O=C(O)CCCCC1CCSS1 (racemic) [racemic lipoic acid, lipoic acid]
protection against TG-induced lipotoxicity (rate of cell death) ([1]; 0.1% LE): did not have any protective effect or even enhanced the rate of cell death

C[C@@H]1C[C@@H]([C@H](O)CC2CC(=O)NC(=O)C2)C(=O)[C@@H](C)C1 [CH, cycloheximide]
effect of protein-synthesis inhibition on TG cell-death effect ([1]; CH 0.1 AM then TG, 48 h (FIG. 6B)): does not prevent the cell-death effect of TG | ROS production, CH treatment alone ([3]; CH 0.1 AM (FIG. 6)): decreased ROS production | caspase-3 activity [4]: increased caspase-3 activity

CC(C)(C)OO [TBH, tert-butyl hydroperoxide]
cell viability after 48 h of exposure ([1]; TBH 12 AM or LE 0.1%, 48 h (FIG. 5)): No loss in viability

Oc1ccc(C=Cc2cc(O)cc(O)c2)cc1 [resveratrol]
protection against TG-induced lipotoxicity (rate of cell death) ([1]; 0.1% LE): significantly decreased the rate of cell death | effect on LE inhibition of nitrite levels [2]: partially prevented the reduction in nitrite synthesis

CCCCS(=N)(=O)CCC(N)C(=O)O (stereo not drawn) [BSO, buthionine sulfoximine]
nitrite levels ([2]; cells treated with BSO): decreased | Nitrite [2, 11]: 2.3 ± 0.3^c μmol/106 cells | GSH ([5]; cells treated with BSO): decreased | GSH [5, 11]: 2.2 ± 0.4 nmol/mg protein

CC(=O)N[C@H](C(=O)O)C(C)(C)SN=O [SNAP, S-nitroso-N-acetyl-penicillamine]
effect on ROS levels ([6]; SNAP in culture medium 48 h, presence or absence of LE): had no effect on ROS levels | ROS (DCF fluorescence) ([6]; with or without 0.1% LE and SNAP, 48 h (Table 4)): SNAP 133 AU

CC1=C(/C=C/C(C)=C/C=C/C(C)=C/C=C/C=C(C)/C=C/C=C(C)/C=C/C2=C(C)CCCC2(C)C)C(C)(C)CCC1 [h-carotene]
protection against TG-induced lipotoxicity (rate of cell death) ([1]; 0.1% LE): did not have any protective effect or even enhanced the rate of cell death

CC(=O)N[C@@H](CS)C(=O)O [NAC, N-acetyl-L-cysteine]
protection against TG-induced cell death ([1]; 0.1% LE, NAC 0.5 mM (FIG. 7B)): protected the cells against TG-induced cell death | TG induced ROS production ([3]; 0.1% LE, NAC 0.5 mM (FIG. 7A)): suppressed | effect on LE inhibition of nitrite levels [2]: increased nitrite levels compared with controls; also recorded: Inhibition of nitrite production was abolished | effect on LE-induced reduction of iNOS mRNA transcription [7]: attenuate the LE-induced reduction | effect on LE-induced reduction of eNOS mRNA transcription [8]: attenuate the LE-induced reduction | effect on LE-induced reduction of iNOS protein levels [9]: attenuate the LE-induced reduction | effect on LE-induced reduction of eNOS protein levels [10]: attenuate the LE-induced reduction

O=c1c(O)c(-c2ccc(O)c(O)c2)oc2cc(O)cc(O)c12 [quercetin]
protection against TG-induced lipotoxicity (rate of cell death) ([1]; 0.1% LE): did not have any protective effect or even enhanced the rate of cell death

N#CC(C#N)=NNc1ccc(OC(F)(F)F)cc1 [FCCP]
ROS production in TG-treated cells [3]: decreased cellular ROS production but not as effectively as rotenone

Cc1c(C)c2c(c(C)c1O)CC[C@@](C)(CCC[C@H](C)CCC[C@H](C)CCCC(C)C)O2 [atocopherol, a-tocopherol]
protection against TG-induced lipotoxicity (rate of cell death) ([1]; 0.1% LE): did not have any protective effect or even enhanced the rate of cell death

C=C(C)[C@H]1Cc2c(ccc3c2O[C@@H]2COc4cc(OC)c(OC)cc4[C@@H]2C3=O)O1 [rotenone]
ROS production in TG-treated cells [3]: significantly decreased ROS production | intracellular ROS levels ([6]; incubation with rotenone): increased intracellular ROS levels | ROS (DCF fluorescence) [6, 12]: 530 ± 44^a AU | Nitrite [2, 12]: 2.0 ± 0.2^c μmol/106 cells
